biological target: T1, Polyphenol oxidase 1 [61-568] (Agaricus bisporus, UniProt Q00024); test: Tyrosinase Activity Assay; settings: pH 6.8
T1 construct: 61-568
T1 sequence (Q00024 whole entry): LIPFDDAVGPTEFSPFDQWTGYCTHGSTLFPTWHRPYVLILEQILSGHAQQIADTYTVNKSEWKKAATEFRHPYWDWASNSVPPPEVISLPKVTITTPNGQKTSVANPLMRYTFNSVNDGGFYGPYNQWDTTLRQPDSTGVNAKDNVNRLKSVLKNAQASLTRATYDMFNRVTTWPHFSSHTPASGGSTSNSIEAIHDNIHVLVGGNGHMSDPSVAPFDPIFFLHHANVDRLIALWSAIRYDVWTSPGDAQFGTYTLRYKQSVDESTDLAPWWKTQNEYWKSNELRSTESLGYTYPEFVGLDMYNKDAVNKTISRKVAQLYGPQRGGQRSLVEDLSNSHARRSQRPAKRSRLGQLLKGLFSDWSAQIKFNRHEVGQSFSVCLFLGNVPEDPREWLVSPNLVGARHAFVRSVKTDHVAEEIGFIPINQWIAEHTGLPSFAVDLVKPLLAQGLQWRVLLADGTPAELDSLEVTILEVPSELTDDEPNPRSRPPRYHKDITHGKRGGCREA
Method: Briefly, 1,3,4-thiadiazole derivatives were tested for diphenolase inhibitory activity of tyrosinase using L-DOPA (dihydroxyphenylalanine) as substrate. All the compounds were dissolved in DMSO and its final concentration in the reaction mixture was 2.0%. Thirty units of mushroom tyrosinase (0.5 mg/ml) were first pre-incubated with the compounds, in 50 mM phosphate buffer (pH 6.8), for 10 min at 25 °C. Then the L-DOPA (0.5 mM) was added to the reaction mixture and the enzyme reaction was continuously monitored by measuring the change in absorbance at 475 nm of formation of the DOPA chrome for 1 min.

SMILES | IC50 [nM]
COc1cc(OC)c(C=Nc2nnc(S)s2)c(OC)c1 [2-((2,4,6-Trimethoxybenzylidene)amino)-5-mercapto-1,3,4-thiadiazole (16)] | 907
Sc1nnc(N=Cc2ccccc2)s1 [2-(Benzylideneamino)-5-mercapto-1,3,4-thiadiazole (1)] | 49200
Sc1nnc(N=Cc2ccc(Cl)cc2)s1 [2-((4-Chlorobenzylidene)amino)-5-mercapto-1,3,4-thiadiazole (4)] | 2460
Oc1ccc(Cl)cc1C=Nc1nnc(SCc2ccccc2)s1 [2-(((5-(Benzylthio)-1,3,4-thiadiazol-2-yl)imino)methyl)-4-chlorophenol (17)] | 247000
COc1cc(C=Nc2nnc(S)s2)cc(OC)c1 [2-((3,5-Dimethoxybenzylidene)amino)-5-mercapto-1,3,4-thiadiazole (11)] | 5350
CC(C)(C)c1ccc(C=Nc2nnc(S)s2)cc1 [2-((4-(Tert-butyl)benzylidene)amino)-5-mercapto-1,3,4-thiadiazole (8)] | 1390
COc1cc(C=Nc2nnc(S)s2)cc(OC)c1O [4-(((5-Mercapto-1,3,4-thiadiazol-2-yl)imino)methyl)-2,6-dimethoxyphenol (15)] | 473

Continued, values first:

IC50 [nM] | SMILES
1970 | Oc1ccc(Br)cc1C=Nc1nnc(S)s1 [4-Bromo-2-(((5-mercapto-1,3,4-thiadiazol-2-yl)imino)methyl)phenol (7)]
765 | Fc1ccccc1C=Nc1nnc(S)s1 [2-((2-Fluorobenzylidene)amino)-5-mercapto-1,3,4-thiadiazole (2)]
3620 | Sc1nnc(N=Cc2ccc(Cl)c(Cl)c2)s1 [2-((3,4-Dichlorobenzylidene)amino)-5-mercapto-1,3,4-thiadiazole (5)]
785 | Oc1ccccc1C=Nc1nnc(S)s1 [2-(((5-Mercapto-1,3,4-thiadiazol-2-yl)imino)methyl)phenol (12)]
4750 | Sc1nnc(N=Cc2cccc(Cl)c2)s1 [2-((3-Chlorobenzylidene)amino)-5-mercapto-1,3,4-thiadiazole (3)]
733 | COc1ccccc1C=Nc1nnc(S)s1 [2-((2-Methoxybenzylidene)amino)-5-mercapto-1,3,4-thiadiazole (10)]
255 | Oc1ccc(C=Nc2nnc(S)s2)c(O)c1 [4-(((5-Mercapto-1,3,4-thiadiazol-2-yl)imino)methyl)benzene-1,3-diol (13)]
1720 | Oc1ccc(Cl)cc1C=Nc1nnc(S)s1 [4-Chloro-2-(((5-mercapto-1,3,4-thiadiazol-2-yl)imino)methyl)phenol (6)]
671 | O=[N+]([O-])c1ccccc1C=Nc1nnc(S)s1 [2-((2-Nitrobenzylidene)amino)-5-mercapto-1,3,4-thiadiazole (9)]
36 | COc1cc(C=Nc2nnc(S)s2)ccc1O [4-(((5-Mercapto-1,3,4-thiadiazol-2-yl)imino)methyl)-2-methoxyphenol (14)]

Reference: BindingDB's records for doi:10.1016/j.bioorg.2016.09.007 (Shaoyang University, 2016)
